Results on 20 compounds are retold here after US12565505B2, “mTORC modulators and uses thereof” (Aeovian Pharmaceuticals, Inc., priority 2019, dated 2026).

The target of one experiment is T1, mTORC2 (Homo sapiens, UniProt P42345+P62942).
T1 construct: endogenous in cells; host or cells: PC3 cells (human prostate adenocarcinoma)
The experiment is described as follows: Inhibition assay for mTORC2: phosphorylation of pAkt at Ser473, AlphaLISA SureFire in PC3 cells. In kind it is cell-based. Conditions: PC3 cells, 24 hours treatment, analogs substituted at C40 and C16 (C16 diastereomer mixtures not isolated), read-out: pIC50 mTORC2 (converted). The method, then:
The IC50s of the inhibition of mTORC1 and mTORC2 were determined in vitro by determining the phosphorylation of pS6K at position Thr389 (mTORC1 inhibition) and pAkt at Ser473 (mTORC2 inhibition). In vitro studies were performed with AiphaLISA® technology using PC3 cells (Prostate Adenocarcinoma; Human (Homo sapiens)). The cells were seeded in 96 well plates and were treated for 24 hours with the different compounds. […] All analysis were performed using GraphPad Prism 7.0 (GraphPad Software, San Diego, USA). […]
(In general: Alpha assays give light when donor and acceptor beads are brought close together.)

For the next experiment, the target named is T2, mTORC1 (Homo sapiens, UniProt P42345+P62942).
T2 construct: endogenous in cells; host or cells: PC3 cells (human prostate adenocarcinoma)
The experiment is described as follows: Inhibition assay for mTORC1: phosphorylation of pS6K at Thr389, AlphaLISA SureFire in PC3 cells. In kind it is cell-based. To be noted: PC3 cells, 24 hours treatment, pS6K Thr389; analogs substituted at C40 and C16 (C16 diastereomer mixtures not isolated); read-out: pIC50 mTORC1 (converted). The method, then: The IC50s of the inhibition of mTORC1 and mTORC2 were determined in vitro by determining the phosphorylation of pS6K at position Thr389 (mTORC1 inhibition) and pAkt at Ser473 (mTORC2 inhibition). In vitro studies were performed with AiphaLISA® technology using PC3 cells (Prostate Adenocarcinoma; Human (Homo sapiens)). The cells were seeded in 96 well plates and were treated for 24 hours with the different compounds. […] All analysis were performed using GraphPad Prism 7.0 (GraphPad Software, San Diego, USA).
Tables 5-7 include PIC50 values for mTORC1 of selected compounds; with compounds having an PIC50 for mTORC1 of >9.5 as A, 8.5 to 9.5 as B, and less than 8.5 as C.

Bounds are passed on as bounds.

With `CO[C@@H]1C[C@H](C[C@@H](C)[C@@H]2CC(=O)[C@H](C)/C=C(\C)[C@@H](O)[C@@H](OC)C(=O)[C@H](C)C[C@H](C)/C=C/C=C/C=C(\C)C(OC[C@@H](O)c3ccccc3)C[C@@H]3CC[C@@H](C)[C@@](O)(O3)C(=O)C(=O)N3CCCCC3C(=O)O2)CC[C@H]1OCCCN1CCOCC1` (some centres unmarked) [Compound 92], the results for the IC50 at mTORC2 and on mTORC1 were 1000 to 10000 nM and less than 0.316 nM, respectively.

Take `CO[C@@H]1CC[C@@H](C[C@@H](C)[C@@H]2CC(=O)[C@H](C)/C=C(\C)[C@@H](O)[C@@H](OC)C(=O)[C@H](C)C[C@H](C)/C=C/C=C/C=C(\C)C(OCCCCO)C[C@@H]3CC[C@@H](C)[C@@](O)(O3)C(=O)C(=O)N3CCCCC3C(=O)O2)C[C@H]1OC` (some centres unmarked) [Compound 24]: the values for the IC50 at mTORC2 and on mTORC1 were more than 10000 nM and less than 0.316 nM, respectively.

For `COCCOC1C[C@@H]2CC[C@@H](C)[C@@](O)(O2)C(=O)C(=O)N2CCCCC2C(=O)O[C@H]([C@H](C)C[C@@H]2CC[C@@H](OC(=O)NCCN3CCCCC3)[C@H](OC)C2)CC(=O)[C@H](C)/C=C(\C)[C@@H](O)[C@@H](OC)C(=O)[C@H](C)C[C@H](C)/C=C/C=C/C=C/1C` (some centres unmarked) [Compound 57], the results for the IC50 at mTORC2 and at mTORC1 were 1000 to 10000 nM and less than 0.316 nM, respectively.

Consider `CO[C@@H]1C[C@H](C[C@@H](C)[C@@H]2CC(=O)[C@H](C)/C=C(\C)[C@@H](O)[C@@H](OC)C(=O)[C@H](C)C[C@H](C)/C=C/C=C/C=C(\C)C(OCCCCO)C[C@@H]3CC[C@@H](C)[C@@](O)(O3)C(=O)C(=O)N3CCCCC3C(=O)O2)CC[C@H]1OCCO` (some centres unmarked) [Compound 63], for which the IC50 is 1000 to 10000 nM on mTORC2 and less than 0.316 nM at mTORC1.

For `COCCCO[C@@H]1CC[C@@H](C[C@@H](C)[C@@H]2CC(=O)[C@H](C)/C=C(\C)[C@@H](O)[C@@H](OC)C(=O)[C@H](C)C[C@H](C)/C=C/C=C/C=C(\C)C(OCCOCCOC)C[C@@H]3CC[C@@H](C)[C@@](O)(O3)C(=O)C(=O)N3CCCCC3C(=O)O2)C[C@H]1OC` (some centres unmarked) [Compound 23], the figures for the IC50 at mTORC2 and at mTORC1 were more than 10000 nM and less than 0.316 nM, respectively.

Take `CO[C@@H]1C[C@H](C[C@@H](C)[C@@H]2CC(=O)[C@H](C)/C=C(\C)[C@@H](O)[C@@H](OC)C(=O)[C@H](C)C[C@H](C)/C=C/C=C/C=C(\C)C(OCCCCO)C[C@@H]3CC[C@@H](C)[C@@](O)(O3)C(=O)C(=O)N3CCCC[C@H]3C(=O)O2)CC[C@H]1OCCCO` (mixture of isomers) [Compound 68]: the IC50 on mTORC2 is 1000 to 10000 nM; on mTORC1 it was less than 0.316 nM.

As for `CO[C@@H]1C[C@H](C[C@@H](C)[C@@H]2CC(=O)[C@H](C)/C=C(\C)[C@@H](O)[C@@H](OC)C(=O)[C@H](C)C[C@H](C)/C=C/C=C/C=C(\C)C(OCCO)C[C@@H]3CC[C@@H](C)[C@@](O)(O3)C(=O)C(=O)N3CCCCC3C(=O)O2)CC[C@H]1OC(=O)N(C)CCO` (some centres unmarked) [Compound 83], the IC50 at mTORC2 was 1000 to 10000 nM; at mTORC1, 0.316 to 3.16 nM.

As for `CO[C@@H]1C[C@H](C[C@@H](C)[C@@H]2CC(=O)[C@H](C)/C=C(\C)[C@@H](O)[C@@H](OC)C(=O)[C@H](C)C[C@H](C)/C=C/C=C/C=C(\C)C(OCCc3ccccc3)C[C@@H]3CC[C@@H](C)[C@@](O)(O3)C(=O)C(=O)N3CCCCC3C(=O)O2)CC[C@H]1OCCCN1CCCCC1` (some centres unmarked) [Compound 101], the IC50 at mTORC2 is less than 1000 nM; at mTORC1, less than 0.316 nM.

In the case of `CO[C@@H]1C[C@H](C[C@@H](C)[C@@H]2CC(=O)[C@H](C)/C=C(\C)[C@@H](O)[C@@H](OC)C(=O)[C@H](C)C[C@H](C)/C=C/C=C/C=C(\C)C(OCCc3ccccc3)C[C@@H]3CC[C@@H](C)[C@@](O)(O3)C(=O)C(=O)N3CCCCC3C(=O)O2)CC[C@H]1OCCCO` (stereo partly drawn) [Compound 94, (1R,9S,12SR,15R,16E,18R,19R,21R,23S,24E,26E,28E,32S,35R)-1,18-dihydroxy-12-[(1R)-2-[(1S,3R,4R)-4-(3-hydroxypropoxy)-3-methoxy-cyclohexyl]-1-methyl-ethyl]-19-methoxy-15,17,21,23,29,35-hexamethyl-30-(2-phenylethoxy)-11,36-dioxa-4-azatricyclo[30.3.1.0^4,9]hexatriaconta-16,24,26,28-tetraene-2,3,10,14,20-pentone], the IC50 on mTORC2 is 1000 to 10000 nM; at mTORC1 it was less than 0.316 nM.

As to `CO[C@@H]1C[C@H](C[C@@H](C)[C@@H]2CC(=O)[C@H](C)/C=C(\C)[C@@H](O)[C@@H](OC)C(=O)[C@H](C)C[C@H](C)/C=C/C=C/C=C(\C)C(OCC3COC3)C[C@@H]3CC[C@@H](C)[C@@](O)(O3)C(=O)C(=O)N3CCCCC3C(=O)O2)CC[C@H]1OCCCO` (some centres unmarked) [Compound 84], the IC50 at mTORC2 is 1000 to 10000 nM; on mTORC1 it was 0.316 to 3.16 nM.

As for `CO[C@@H]1C[C@H](C[C@@H](C)[C@@H]2CC(=O)[C@H](C)/C=C(\C)[C@@H](O)[C@@H](OC)C(=O)[C@H](C)C[C@H](C)/C=C/C=C/C=C(\C)C(OCCc3ccccc3)C[C@@H]3CC[C@@H](C)[C@@](O)(O3)C(=O)C(=O)N3CCCCC3C(=O)O2)CC[C@H]1OC(=O)N(C)CCO` (some centres unmarked) [Compound 105], the IC50 on mTORC2 was less than 1000 nM; at mTORC1, less than 0.316 nM.

Turning to `CO[C@@H]1C[C@H](C[C@@H](C)[C@@H]2CC(=O)[C@H](C)/C=C(\C)[C@@H](O)[C@@H](OC)C(=O)[C@H](C)C[C@H](C)/C=C/C=C/C=C(\C)C(OCCO)C[C@@H]3CC[C@@H](C)[C@@](O)(O3)C(=O)C(=O)N3CCCCC3C(=O)O2)CC[C@H]1OC(=O)N(C)CCN1CCOCC1` (stereo partly drawn) [Compound 41, [(1R,2R,4S)-4-[(2R)-2-[(1R,9S,12S,15R,16E,18R,19R,21R,23S,24E,26E,28E,32S,35R)-1,18-dihydroxy-30-(2-hydroxyethoxy)-19-methoxy-15,17,21,23,29,35-hexamethyl-2,3,10,14,20-pentaoxo-11,36-dioxa-4-azatricyclo[30.3.1.0^4,9]hexatriaconta-16,24,26,28-tetraen-12-yl]propyl]-2-methoxy-cyclohexyl] N-methyl-N-(2-morpholinoethyl)carbamate], the IC50 on mTORC2 is 1000 to 10000 nM; at mTORC1 it was less than 0.316 nM.

Regarding `CO[C@@H]1C[C@H](C[C@@H](C)[C@@H]2CC(=O)[C@H](C)/C=C(\C)[C@@H](O)[C@@H](OC)C(=O)[C@H](C)C[C@H](C)/C=C/C=C/C=C(\C)C(OCCc3ccccc3)C[C@@H]3CC[C@@H](C)[C@@](O)(O3)C(=O)C(=O)N3CCCCC3C(=O)O2)CC[C@H]1OC(=O)N(C)CCCN(C)C` (some centres unmarked) [Compound 95], the results for the IC50 at mTORC2 and at mTORC1 were less than 1000 nM and less than 0.316 nM, respectively.

Consider `CO[C@@H]1C[C@H](C[C@@H](C)[C@@H]2CC(=O)[C@H](C)/C=C(\C)[C@@H](O)[C@@H](OC)C(=O)[C@H](C)C[C@H](C)/C=C/C=C/C=C(\C)C(OCCO)C[C@@H]3CC[C@@H](C)[C@@](O)(O3)C(=O)C(=O)N3CCCCC3C(=O)O2)CC[C@H]1OC(=O)NCCn1cnnn1` (some centres unmarked) [Compound 89], for which the IC50 on mTORC2 is 1000 to 10000 nM; at mTORC1, 0.316 to 3.16 nM.

Take `COCCOCCOC1C[C@@H]2CC[C@@H](C)[C@@](O)(O2)C(=O)C(=O)N2CCCCC2C(=O)O[C@H]([C@H](C)C[C@@H]2CC[C@@H](OCCO)[C@H](OC)C2)CC(=O)[C@H](C)/C=C(\C)[C@@H](O)[C@@H](OC)C(=O)[C@H](C)C[C@H](C)/C=C/C=C/C=C/1C` (some centres unmarked) [Compound 20]: the IC50 at mTORC2 was more than 10000 nM; at mTORC1 it was less than 0.316 nM.

With `CO[C@@H]1C[C@H](C[C@@H](C)[C@@H]2CC(=O)[C@H](C)/C=C(\C)[C@@H](O)[C@@H](OC)C(=O)[C@H](C)C[C@H](C)/C=C/C=C/C=C(\C)C(OCC3COC3)C[C@@H]3CC[C@@H](C)[C@@](O)(O3)C(=O)C(=O)N3CCCCC3C(=O)O2)CC[C@H]1OCCO` (some centres unmarked) [Compound 75], the IC50 at mTORC2 was 1000 to 10000 nM; at mTORC1, 0.316 to 3.16 nM.

With `CO[C@@H]1C[C@H](C[C@@H](C)[C@@H]2CC(=O)[C@H](C)/C=C(\C)[C@@H](O)[C@@H](OC)C(=O)[C@H](C)C[C@H](C)/C=C/C=C/C=C(\C)C(OCCc3ccccc3)C[C@@H]3CC[C@@H](C)[C@@](O)(O3)C(=O)C(=O)N3CCCCC3C(=O)O2)CC[C@H]1OC(=O)NCCN1CCOCC1` (some centres unmarked) [Compound 93], the IC50 on mTORC2 was less than 1000 nM; on mTORC1, less than 0.316 nM.

Turning to `CO[C@@H]1C[C@H](C[C@@H](C)[C@@H]2CC(=O)[C@H](C)/C=C(\C)[C@@H](O)[C@@H](OC)C(=O)[C@H](C)C[C@H](C)/C=C/C=C/C=C(\C)C(OCc3ccccc3)C[C@@H]3CC[C@@H](C)[C@@](O)(O3)C(=O)C(=O)N3CCCCC3C(=O)O2)CC[C@H]1OC(=O)NCCc1ccccc1` (some centres unmarked) [Compound 117], the values for the IC50 on mTORC2 and at mTORC1 were less than 1000 nM and less than 0.316 nM, respectively.

Turning to `CO[C@@H]1C[C@H](C[C@@H](C)[C@@H]2CC(=O)[C@H](C)/C=C(\C)[C@@H](O)[C@@H](OC)C(=O)[C@H](C)C[C@H](C)/C=C/C=C/C=C(\C)C(OCCO)C[C@@H]3CC[C@@H](C)[C@@](O)(O3)C(=O)C(=O)N3CCCC[C@H]3C(=O)O2)CC[C@H]1OCCCN1CCO[C@H](C)C1` (mixture of isomers) [Compound 13], the IC50 on mTORC2 is more than 10000 nM.

For `CO[C@@H]1C[C@H](C[C@@H](C)[C@@H]2CC(=O)[C@H](C)/C=C(\C)[C@@H](O)[C@@H](OC)C(=O)[C@H](C)C[C@H](C)/C=C/C=C/C=C(\C)C(OCCO)C[C@@H]3CC[C@@H](C)[C@@](O)(O3)C(=O)C(=O)N3CCCCC3C(=O)O2)CC[C@H]1OCCCN1CCO[C@H](C)C1` (some centres unmarked) [Compound 43], the IC50 at mTORC2 was 1000 to 10000 nM.
